In US12534472B2, “Morphic forms of trilaciclib and methods of manufacture thereof” (Pharmacosmos Holding A/S, priority 2020, dated 2026):
Values belong to the compound of their own block, whether it stands above or below them.

Key:
Assay type in all cases: physicochemical
[1] = Solubility of trilaciclib (general statement)
[2] = Thermodynamic solubility in water at pH 4.2; conditions: for Observations at T = 24 hours: 30 mg/mL in water at pH 4.2, agitated at ambient temperature ca. 24 hours; for Observations at T = 0 hours: 30 mg/mL in water at pH 4.2, ambient temperature
Experimental: Thermodynamic solubility was carried out for Pattern 1, Pattern 2/6 mixture, Pattern 3, amorphous di-HCl salts and Pattern 7 in water at pH 4.2. All samples were prepared at 30 mg/mL. Initial observations were made. The samples were agitated at ambient temperature for ca. 24 hours. The samples were collected and observations made. Observed solids were isolated via centrifugation. The mother liquor from the filtered sample was analyzed by HPLC. The pH 4.3 solution was prepared by diluting glacial acetic acid (11.6 mL) to 100 mL in deionized water, then adding sodium acetate (1.07 g) and acetic acid solution (5.9 mL) preparing up to 500 mL with deionized water; then the pH was adjusted to 4.2. The above technique was used to generate the images in FIG. 60.

[3] = Solvent solubility screen (approximate solubility)
Experimental: The solvent solubility experiment was carried out using various solvents to determine solid formation. A known volume aliquot (typically 5 volumes) of solvent was added to approximately 10 mg of amorphous Compound 1 as a dihydrochloride. Between each addition, the mixture was checked for dissolution and where no dissolution was apparent, the mixture was heated to ca. 40° C. and checked again. This procedure was continued until dissolution was observed or until 100 volumes of solvent had been added. All observed solids were isolated and analyzed by XRPD.
Examples of solvents include, but are not limited to, 1,4 dioxane, methanol, ethanol, propanol, butanol, butanone, ethoxyethanol, trifluoroethanol, methyl-THF, acetone, acetonitrile, anisole, chlorobenzene, DMSO, DMF, cumene, dichloromethane, ethyl acetate, ethylene glycol, heptane, isopropyl acetate, nitromethane, n-methylpyrrolidone, MIBK, t-BME, tetrahydrofuran, toluene, water and mixtures thereof. The above technique was used to generate the images in FIG. 8, FIG. 9, FIG. 10, FIG. 11, FIG. 12, FIG. 14.

solubility in DMSO ([1]; DMSO): practically insoluble | solubility in water ([1]; water): not very soluble
SMILES: CN1CCN(c2ccc(Nc3ncc4cc5n(c4n3)C3(CCCCC3)CNC5=O)nc2)CC1 [trilaciclib, 2′-((5-(4-methylpiperazin-1-yl)pyridin-2-yl)amino)-7′,8′-dihydro-6′H-spiro[cyclohexane-1,9′-pyrazino[1′,2′:1,5]pyrrolo[2,3-d]pyrimidin]-6′-one]

Observations at T = 24 hours [2]: Off-white slurry | Observations at T = 0 hours [2]: Off-white slurry
SMILES: CN1CCN(c2ccc(Nc3ncc4cc5n(c4n3)C3(CCCCC3)CNC5=O)nc2)CC1 [Pattern 7, 2′-((5-(4-methylpiperazin-1-yl)pyridin-2-yl)amino)-7′,8′-dihydro-6′H-spiro[cyclohexane-1,9′-pyrazino[1′,2′:1,5]pyrrolo[2,3-d]pyrimidin]-6′-one]

Observations at T = 24 hours [2]: Yellow solution | Observations at T = 0 hours [2]: Yellow solution (dissolved | Approx. Solubility ([3]; 1,4-Dioxane, heated to ca. 40° C. where no dissolution): <5000 µg/mL | Approx. Solubility ([3]; 1-Butanol, heated to ca. 40° C. where no dissolution): <5000 µg/mL | Approx. Solubility ([3]; 2,2,2-Trifluoroethanol): >200000 µg/mL | Approx. Solubility ([3]; 2-Butanone, heated to ca. 40° C. where no dissolution): <5000 µg/mL | Approx. Solubility ([3]; 2-Ethoxyethanol, heated to ca. 40° C. where no dissolution): <5000 µg/mL | Approx. Solubility ([3]; 2-Methyl THF, heated to ca. 40° C. where no dissolution): <5000 µg/mL | Approx. Solubility ([3]; 2-Propanol, heated to ca. 40° C. where no dissolution): ca 5 mg/mL | Approx. Solubility ([3]; Acetone, heated to ca. 40° C. where no dissolution): <5000 µg/mL | Approx. Solubility ([3]; Acetonitrile/water (90:10% v/v), heated to ca. 40° C. where no dissolution): <5000 µg/mL | Approx. Solubility ([3]; Acetonitrile, heated to ca. 40° C. where no dissolution): <5000 µg/mL | Approx. Solubility ([3]; Anisole, heated to ca. 40° C. where no dissolution): <5000 µg/mL | Approx. Solubility ([3]; Chlorobenzene, heated to ca. 40° C. where no dissolution): <5000 µg/mL | Approx. Solubility ([3]; Cumene, heated to ca. 40° C. where no dissolution): ca 5 mg/mL | Approx. Solubility ([3]; DMF, heated to ca. 40° C. where no dissolution): <5000 µg/mL | Approx. Solubility ([3]; DMSO, heated to ca. 40° C. where no dissolution): ca 5 mg/mL | Approx. Solubility ([3]; Deionized Water): >200000 µg/mL | Approx. Solubility ([3]; Dichloromethane, heated to ca. 40° C. where no dissolution): <5000 µg/mL | Approx. Solubility ([3]; Ethanol/water (85:15% v/v), heated to ca. 40° C. where no dissolution): <5000 µg/mL | Approx. Solubility ([3]; Ethanol, heated to ca. 40° C. where no dissolution): ca 5 mg/mL | Approx. Solubility ([3]; Ethyl Acetate, heated to ca. 40° C. where no dissolution): <5000 µg/mL | Approx. Solubility ([3]; Ethylene glycol): 50000 µg/mL | Approx. Solubility ([3]; Heptane, heated to ca. 40° C. where no dissolution): <5000 µg/mL | Approx. Solubility ([3]; Isopropyl acetate, heated to ca. 40° C. where no dissolution): <5000 µg/mL | Approx. Solubility ([3]; Methanol/water (95:5% v/v)): 20000 µg/mL | Approx. Solubility ([3]; Methanol, heated to ca. 40° C. where no dissolution): ca 5 mg/mL | Approx. Solubility ([3]; Methyl isobutyl ketone, heated to ca. 40° C. where no dissolution): <5000 µg/mL | Approx. Solubility ([3]; N-Methylpyrrolidone, heated to ca. 40° C. where no dissolution): <5000 µg/mL | Approx. Solubility ([3]; Nitromethane): 33000 µg/mL | Approx. Solubility ([3]; Tetrahydrofuran/water (99:1% v/v), heated to ca. 40° C. where no dissolution): <5000 µg/mL | Approx. Solubility ([3]; Tetrahydrofuran, heated to ca. 40° C. where no dissolution): <5000 µg/mL | Approx. Solubility ([3]; Toluene, heated to ca. 40° C. where no dissolution): <5000 µg/mL | Approx. Solubility ([3]; t-Butylmethyl ether, heated to ca. 40° C. where no dissolution): <5000 µg/mL
SMILES: CN1CCN(c2ccc(Nc3ncc4cc5n(c4n3)C3(CCCCC3)CNC5=O)nc2)CC1.Cl.Cl [Amorphous Di-HCl]
